Reference: PubChem BioAssay (NCI)
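The compound was tested at five concentrations on cells cultured in 96-well plates, with a 48-hour exposure period. GI50: concentration for 50% inhibition of growth. TGI denotes the concentration required for complete inhibition of growth.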

Assays:
Assay in all cases: NCI anticancer screen, dose series, 48 h
ACHN renal = system: ACHN renal
SK-MEL-5 melanoma = system: SK-MEL-5 melanoma
HCT-15 colon = system: HCT-15 colon
HCT-116 colon = system: HCT-116 colon
UO-31 renal = system: UO-31 renal
SW-620 colon = system: SW-620 colon
A498 renal = system: A498 renal
PC-3 prostate = system: PC-3 prostate
SR leukemia = system: SR leukemia
COLO 205 colon = system: COLO 205 colon

SMILES	TGI (ACHN renal)	TGI (SK-MEL-5 melanoma)	TGI (HCT-15 colon)	TGI (HCT-116 colon)	TGI (UO-31 renal)	TGI (SW-620 colon)	TGI (A498 renal)	GI50 (ACHN renal)	GI50 (PC-3 prostate)	TGI (PC-3 prostate)	GI50 (SK-MEL-5 melanoma)	GI50 (SR leukemia)	TGI (SR leukemia)	GI50 (HCT-15 colon)	GI50 (UO-31 renal)	GI50 (COLO 205 colon)	TGI (COLO 205 colon)	GI50 (SW-620 colon)	GI50 (A498 renal)	GI50 (HCT-116 colon)
O=C1CC(c2c(-c3ccccc3)[nH]c3ccccc23)C(=O)N1c1ccccc1 (stereo not drawn)	> 100 µM	> 100 µM	> 100 µM	> 100 µM	> 100 µM	> 100 µM	> 100 µM													
COc1ccc(C(C)c2cc(OC)c(OC)c(OC)c2)cc1 (stereo not drawn)	> 50 µM	12.8 µM	> 50 µM		> 50 µM	> 50 µM	> 50 µM	0.341 µM	165 nM	> 50 µM	0.13 µM	30.3 nM	> 50 µM	0.088 µM	409 nM	0.109 µM	0.325 µM	0.0581 µM	125 nM	
Cc1cc(N(CCC#N)CCC#N)ccc1N=Nc1cc(Cl)ccc1Cl	25.4 µM	30.3 µM	6.58 µM		30.9 µM	6.5 µM	34.7 µM										4.97 µM			
CCOC(=O)C1C=C2O[C@@H]3OC4(CCCCC4)O[C@@H]3C2C2C(=O)CCC(=O)[C@@]12C(=O)OC (stereo partly drawn)	> 100 µM	> 100 µM	> 100 µM	> 100 µM	> 100 µM	> 100 µM	> 100 µM										> 100 µM			
O=C1/C(=C/c2ccc3c(c2)OCCO3)CCC/C1=C\c1ccc2c(c1)OCCO2	> 100 µM	80 µM	> 100 µM	7.85 µM	> 100 µM	> 100 µM	62.1 µM						85.8 µM				46.8 µM			
COC(=O)c1cccc2c3ccccc3c3ccccc3c12	> 100 µM	> 100 µM	> 100 µM	> 100 µM	> 100 µM	> 100 µM	50 µM						87.7 µM				31.7 µM			
CC1(C)CCCC2(C)C3C(O)CC2(C)C(O)C31 (stereo not drawn)	> 100 µM	> 100 µM	> 100 µM	> 100 µM	> 100 µM	> 100 µM	> 100 µM										> 100 µM			
Cc1cccc(C)c1NC(=O)CCC/C(CC(=O)c1ccc(F)cc1)=N\NC(=O)C(=O)NN	> 100 µM	> 100 µM	> 100 µM	> 100 µM	> 100 µM	> 100 µM	> 100 µM										> 100 µM			
C1OC1CN1CCN(CC2CO2)CC1 (stereo not drawn)	> 100 µM	> 100 µM	> 100 µM	> 100 µM	> 100 µM	> 100 µM	> 100 µM						23.3 µM				> 100 µM			
Cn1c(=O)nc2n(-c3ccc(Cl)cc3)c(-c3ccccc3)c(-c3ccccc3)nc-2c1=O	49.8 µM	53.5 µM	> 100 µM		60.7 µM	> 100 µM	> 100 µM										> 100 µM			
[N-]=[N+]=NCCCn1c2c(c3ccc([N+](=O)[O-])cc3c1=O)C(=O)c1cc3c(cc1-2)OCO3	0.459 µM	0.196 µM	> 100 µM	1.18 µM	2.28 µM	> 100 µM		< 0.0161 µM	2240 nM	> 100 µM	< 0.0317 µM	< 10 nM	< 0.01 µM	1.42 µM	< 33.5 nM	0.585 µM	> 100 µM	< 0.0285 µM		< 0.01 µM
CC1=CC(C)(c2c[nH]c3ccccc23)CC(C)(C)c2c1[nH]c1ccccc21 (stereo not drawn)	44.5 µM			26.7 µM	27.3 µM	32.1 µM	37.8 µM						32 µM							
COc1ccc(/C(C)=N/NC(=O)CSc2nc3ccccc3c(=O)n2CCc2ccc(S(N)(=O)=O)cc2)cc1	3.27 µM	3.06 µM	63.7 µM		3.28 µM	5.01 µM	4.12 µM	1.73 µM	1980 nM	4.15 µM	1.64 µM	2520 nM	> 100 µM	4.7 µM	1560 nM			2.28 µM	2100 nM	
CC(=O)Oc1ccc2c(c1)[C@@]1(C)CCCC(C)(C)[C@@H]1CC2	33.5 µM	73.6 µM	37.3 µM	32.8 µM	79.9 µM	> 100 µM		19.1 µM	20100 nM	39 µM	30.9 µM	> 100000 nM	> 100 µM	19.5 µM	31300 nM	21.9 µM	53.6 µM	28.2 µM		18.4 µM
N#Cc1c(-c2ccccc2)cc(-c2ccc(N)cc2)[nH]c1=O	> 100 µM	> 100 µM	> 100 µM	> 100 µM	> 100 µM	> 100 µM	> 100 µM						> 100 µM				> 100 µM			
CCc1cccc(C(C)C)c1NC(=O)CCl	> 100 µM		> 100 µM	> 100 µM	> 100 µM	> 100 µM							> 100 µM							
Cc1c(Cl)c(=O)oc2cc(OC/C=C3\CCC(=O)O3)ccc12	17.9 µM	52.2 µM	30 µM	28.3 µM	25 µM	35.6 µM	75.3 µM	4.22 µM	14200 nM	38.8 µM	21 µM			15.3 µM	12100 nM	12.9 µM	30.1 µM	13.5 µM	21100 nM	13.9 µM
Cc1cc(C(=O)/C=C/c2ccc[nH]2)ccc1-n1ccc(C(F)(F)F)n1	> 100 µM	25.3 µM	> 100 µM	> 100 µM	2.72 µM	> 100 µM		21.3 µM	472 nM	4.45 µM	12.1 µM	3720 nM	80.1 µM	11.1 µM	1400 nM	21.8 µM	> 100 µM	10.7 µM		8.63 µM
C=CC(COC(=O)C(C)(C)OC(C)=O)c1ccc(OC(=O)C(C)C)c(OC)c1 (stereo not drawn)	8.77 µM	27.8 µM	4.88 µM	> 48.9 µM	21.1 µM	52.8 µM	37.7 µM			27 µM							7.05 µM			
